Data published in patent publication US7414042B2, “Method and composition for selectively inhibiting melanoma” (The Board of Trustees of The University of Illinois, priority 1995, dated 2008).
Values after ≈ are worked out from the molar mass of the structure shown. Like-named read-outs stand apart in the source and are kept apart here.

Tests used:
A431 (squamous cells) = assay: Cytotoxicity against cultured human cancer cells (SRB); assay type: cell-based; conditions: three days incubation, SRB; for IC50: Homo sapiens, A-431, 72 h, read-out: ED50 A431
Procedure: (§1) The plates were incubated for three days. […] Dose response studies were performed to generate ED50 values.

BC-1 (breast) = assay: as above; assay type: cell-based; conditions: three days incubation, SRB; for IC50: Homo sapiens, 72 h, read-out: ED50 BC-1
Procedure: as §1

COL-2 (colon) = assay: as above; assay type: cell-based; conditions: three days incubation, SRB; for IC50: Homo sapiens, Col2, 72 h, read-out: ED50 COL-2
Procedure: as §1

HT-1080 (sarcoma) = assay: as above; assay type: cell-based; conditions: three days incubation; for IC50: Homo sapiens, HT-1080, 72 h, read-out: ED50 HT-1080
Procedure: as §1

[1] = test system: KB (human oral epidermoid carcinoma); assay: as above; assay type: cell-based; conditions: three days incubation, SRB, Table 1; for IC50: Homo sapiens, 72 h, read-out: ED50 KB
Procedure: as §1

LNCaP (prostate) = assay: as above; assay type: cell-based; conditions: three days incubation, SRB; for IC50: Homo sapiens, LNCaP, 72 h, read-out: ED50 LNCaP
Procedure: as §1

LU-1 (lung) = assay: as above; assay type: cell-based; conditions: three days incubation; for IC50: Homo sapiens, 72 h, read-out: ED50 LU-1
Procedure: as §1

U373 (glioma) = assay: as above; assay type: cell-based; conditions: three days incubation, SRB; for IC50: Homo sapiens, U373 MG, 72 h, read-out: ED50 U373
Procedure: as §1

ZR-75-1 (breast) = assay: as above; assay type: cell-based; conditions: three days incubation, SRB; for IC50: Homo sapiens, ZR-75-1, 72 h, read-out: ED50 ZR 75-1
Procedure: as §1

MEL-2 (melanoma) = assay: Cytotoxicity against cultured human melanoma cells (SRB); assay type: cell-based; conditions: three days incubation, SRB, Table 1 and text; for IC50: Homo sapiens, MEL2, 72 h, read-out: ED50 MEL-2
Procedure: as §1

[2] = test system: human melanoma and nonmelanoma cancer cell lines
Procedure: (§2) In the following Table 1, the extracted betulinic acid and the other pure compounds were tested for cycotoxity against the following cultured human cell lines: A431 (squamous cells), BC-1 (breast), COL-2 (colon), HT-1080 (sarcoma), KB (human oral epidermoid carcinoma), LNCaP (prostate), LU-1 (lung), MEL-2 (melanoma), U373 (glioma) and ZR-75-1 (breast).
(§3) Cytotoxicity of the crude extracts and purified compounds was determined in a number of cultured human cancer cell lines. The cells were cultured in appropriate media and under standard conditions. To maintain logarithmic growth, the media were changed 24 hours prior to cytotoxic assays. On the day of the assay, the cells were harvested by trypsinization, counted, diluted in media, and added to 96-well plates containing test compounds dissolved in DMSO; the final DMSO concentration was 0.05%.
(§4) The plates were incubated for three days. Following the incubation period, the cells were fixed and stained with sulforhodamine B (SRB) dye. The bound dye was liberated with Tris base, and the OD515 was measured on an ELISA reader. The growth of the betulinic acid-treated cells was determined by the OD515 values, and the growth was compared to the OD515 values of DMSO-treated control cells. Dose response studies were performed to generate ED50 values.
(§5) The biological evaluation of the derivatives focused on the activity against human melanoma cell lines. In particular, the following betulinic acid derivatives were prepared and tested for cytotoxicity profile against human melanoma cell lines and against a number of selected nonmelanoma cell lines.

[3] = test system: human melanoma and nonmelanoma cancer cell lines; assay: Cytotoxicity profile across the panel of human cancer cell lines; conditions: Table 1 panel
Procedure: as §2, §3, §4, §5

SMILES	IC50 (A431 (squamous cells)) [µg/mL]	IC50 (BC-1 (breast)) [µg/mL]	IC50 (COL-2 (colon)) [µg/mL]	IC50 (HT-1080 (sarcoma)) [µg/mL]	IC50 [1] [µg/mL]	IC50 (LNCaP (prostate)) [µg/mL]	IC50 (LU-1 (lung)) [µg/mL]	IC50 (U373 (glioma)) [µg/mL]	IC50 (ZR-75-1 (breast)) [µg/mL]	IC50 (MEL-2 (melanoma)) [µg/mL]	cytotoxic activity profile, cell-type selectivity [3]	also measured
Cc1c2ccncc2c(C)c2c1[nH]c1ccccc12 [Ellipticine]	0.5 (≈ 2.03 µM)	0.2 (≈ 0.812 µM)	0.3 (≈ 1.22 µM)	1.8 (≈ 7.31 µM)	0.04 (≈ 0.162 µM)	0.8 (≈ 3.25 µM)	0.02 (≈ 0.0812 µM)	1.6 (≈ 6.5 µM)	0.9 (≈ 3.65 µM)	0.9 (≈ 3.65 µM)		cytotoxic activity profile, cell-type selectivity [2]: relatively intense, nonselective cytotoxic activity
CO[C@H](C(=O)[C@@H](O)[C@@H](C)O)[C@@H]1Cc2cc3cc(O[C@H]4C[C@@H](O[C@H]5C[C@@H](O)[C@H](O)[C@@H](C)O5)[C@H](O)[C@@H](C)O4)c(C)c(O)c3c(O)c2C(=O)[C@H]1O[C@H]1C[C@@H](O[C@H]2C[C@@H](O[C@H]3C[C@](C)(O)[C@H](O)[C@@H](C)O3)[C@@H](O)[C@@H](C)O2)[C@H](O)[C@@H](C)O1 [Mithramycin A]											relatively intense, nonselective cytotoxic activity	ED50 A431 (A431 (squamous cells)): 0.09 µg/mL (≈ 0.0829 µM); ED50 BC-1 (BC-1 (breast)): 0.3 µg/mL (≈ 0.276 µM); ED50 COL-2 (COL-2 (colon)): 0.06 µg/mL (≈ 0.0553 µM); ED50 HT-1080 (HT-1080 (sarcoma)): 1.5 µg/mL (≈ 1.38 µM); ED50 KB [1]: 0.09 µg/mL (≈ 0.0829 µM); ED50 LNCaP (LNCaP (prostate)): 0.05 µg/mL (≈ 0.0461 µM); ED50 LU-1 (LU-1 (lung)): 0.2 µg/mL (≈ 0.184 µM); ED50 U373 (U373 (glioma)): 0.04 µg/mL (≈ 0.0369 µM); ED50 ZR 75-1 (ZR-75-1 (breast)): 0.2 µg/mL (≈ 0.184 µM); ED50 MEL-2 (MEL-2 (melanoma)): 1.2 µg/mL (≈ 1.11 µM)
CC[C@]1(O)C[C@@H]2CN(CCc3c([nH]c4ccccc34)[C@@](C(=O)OC)(c3cc4c(cc3OC)N(C)[C@H]3[C@@](O)(C(=O)OC)[C@H](OC(C)=O)[C@]5(CC)C=CCN6CC[C@]43[C@@H]65)C2)C1 [Vinbiastine, vinblastine]	0.05 (≈ 0.0617 µM)	0.06 (≈ 0.074 µM)	0.01 (≈ 0.0123 µM)	0.02 (≈ 0.0247 µM)	0.04 (≈ 0.0493 µM)	0.1 (≈ 0.123 µM)	0.02 (≈ 0.0247 µM)	1.1 (≈ 1.36 µM)	0.3 (≈ 0.37 µM)	0.01 (≈ 0.0123 µM)	relatively intense, nonselective cytotoxic activity	
